Source: paper PMC12022973, “Proteomimetic Strategy for the Modulation of Intrinsically Disordered Protein MYC” (Journal of the American Chemical Society, 2025)
Starred links: 1 amine or outer side, 2 acyl side, 3 side chain; linkers in the order of their positions; H or OH if unused. Positions of bridges follow the written chain, without caps; N, C: chain ends. Residues, ends and D or L forms follow the SMILES beside them. Chains are numbered I, II in the order given. X1 = c1cc(C[*:1])ccc1COCc1ccc(C[*:2])cc1

Test: Serum stability assay in 25% FBS
Format: in vitro ADME
Settings: 25% fetal bovine serum in RPMI-1640, 37 °C, RP-HPLC C18 at 280 nm, L-tryptophan internal standard, triplicate, read-out: initial peptide remaining intact in serum
Method: Encouraged by the in vitro results, we evaluated the potential of CHD^Max-1 to form a complex with MYC in cellulo. We first assessed the ability of CHDs to resist proteolytic degradation in fetal bovine serum (FBS). We monitored the rate of peptide degradation under the treatment of 25% FBS over 24 h by RP-HPLC, with tryptophan as an internal standard. […] After validating the serum stability of CHD^Max-1, we tested its potential to enter live cells. We chose T24 cells, a bladder cancer cell line, for these studies because these cells express a high level of MYC.[39] We assessed the ability of fluorescein-labeled FITC–CHD^Max-1 to enter T24 cells using confocal microscopy and observed overlapped fluorescein and Hoechst nuclear stain signals, showing internalization of FITC–CHD^Max-1 (Figure 4C).
CD experiments were conducted on an Jasco J-1500 Circular Dichroism spectrometer equipped with a temperature controller using 1 mm length cells and a scan speed of 4.0 nm/min at 298 K. The spectra were averaged over 5 scans with baseline subtraction. […] The concentrations of each peptide were determined by the UV absorption at 280 nm.
Proteolytic stability of CHDMax-1 was assessed in 25% serum by using fetal bovine serum (FBS, Gibco) in Roswell Park Memorial Institute (RPMI)-1640 medium at 37 °C. […] Time points of 0 h, 6 h, and 24 h were analyzed in triplicate. […]

remaining at 24 h: ~80%
Compound: CC[C@H](C)[C@H](NC(=O)[C@H](CCCCN)NC(=O)[C@H](CCC(=O)O)NC(=O)[C@H](CCCNC(=N)N)NC(=O)[C@H](CC(C)C)NC(C)=O)C(=O)N[C@@H](C)C(=O)N[C@H](C(=O)N[C@@H](CC(C)C)C(=O)N[C@@H](CCC(N)=O)C(=O)N[C@@H](Cc1c[nH]c2ccccc12)C(=O)N[C@@H](CSCc1ccc(COCc2ccc(CSC[C@H](NC(=O)[C@H](CC(C)C)NC(=O)[C@H](CCC(=O)O)NC(=O)[C@H](CCC(=O)O)NC(=O)[C@@H](NC(=O)[C@H](CCC(=O)O)NC(=O)[C@H](Cc3c[nH]c4ccccc34)NC(=O)[C@H](CCC(N)=O)NC(=O)[C@H](Cc3c[nH]cn3)NC(=O)[C@@H](NC(=O)[C@H](CCC(=O)O)NC(=O)[C@H](CC(N)=O)NC(=O)[C@H](CCCCN)NC(=O)[C@H](CCCNC(=N)N)NC(=O)[C@H](CCCNC(=N)N)NC(=O)[C@H](CC(C)C)NC(C)=O)[C@@H](C)O)[C@@H](C)CC)C(N)=O)cc2)cc1)C(=O)N[C@H](C(=O)N[C@@H](CCC(=O)O)C(=O)N[C@@H](CCC(=O)O)C(=O)N[C@@H](CC(C)C)C(=O)N[C@@H](CCCNC(=N)N)C(=O)N[C@@H](CCCCN)C(N)=O)[C@@H](C)CC)[C@@H](C)O [CHD^Max-1] (I: Ac-LREKIATLQWCIEELRK-NH2 / II: Ac-LRRKNETHQWEIEELC-NH2; linker I:11-II:16 via X1)
